Results reported in the supplement of paper PMC5844555.

Columns and labels:
Assay in all cases: 3' UTR reporter interaction score (median-centred robust z-score of log2 firefly/Renilla activity); higher = less repression of the 3' UTR reporter
Settings in all cases: HEK293T; 48 h
MYCN = system: MYCN
Procedure, shortened: (§1)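 In at least two independent screens, HEK293T cells in 96-well plates (10,000/well) were co-transfected with DharmaFECT Duo using 100 ng firefly luc2P reporter with the gene's 3' UTR, 20 ng Renilla pRL-TK control and 2.5 pmol miRNA mimic, and dual-luciferase activities were read at 48 h. The interaction score, averaged across screens, is the per-plate robust z-score (median, median absolute deviation) of the log firefly/Renilla ratio, median-centred per miRNA, with more negative indicating interaction.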

PHOX2B = system: PHOX2B
Procedure, shortened: as §1

NOTCH1 = system: NOTCH1
Procedure, shortened: as §1

RB1 = system: RB1
Procedure, shortened: as §1

HRAS = system: HRAS
Procedure, shortened: as §1

MYC = system: MYC
Procedure, shortened: as §1

TP53 = system: TP53
Procedure, shortened: as §1

FBXW7 = system: FBXW7
Procedure, shortened: as §1

MYB = system: MYB
Procedure, shortened: as §1

BRCA2 = system: BRCA2
Procedure, shortened: as §1

MYT1L = system: MYT1L
Procedure, shortened: as §1

ZEB2 = system: ZEB2
Procedure, shortened: as §1

EZH2 = system: EZH2
Procedure, shortened: as §1

PHF6 = system: PHF6
Procedure, shortened: as §1

Sequence | 3' UTR reporter interaction score (MYCN) | 3' UTR reporter interaction score (PHOX2B) | 3' UTR reporter interaction score (NOTCH1) | 3' UTR reporter interaction score (RB1) | 3' UTR reporter interaction score (HRAS) | 3' UTR reporter interaction score (MYC) | 3' UTR reporter interaction score (TP53) | 3' UTR reporter interaction score (FBXW7) | 3' UTR reporter interaction score (MYB) | 3' UTR reporter interaction score (BRCA2) | 3' UTR reporter interaction score (MYT1L) | 3' UTR reporter interaction score (ZEB2) | 3' UTR reporter interaction score (EZH2) | 3' UTR reporter interaction score (PHF6)
AAGCUGCCAGUUGAAGAACUGU | -0.291 | 0.0996 | 1.36 | 0.935 | 0.475 | -0.252 | -0.365 | -0.354 | 0.23 | -0.407 | -1.31 | 0.607 | -0.11 | -0.206
AAGGAGCUCACAGUCUAUUGAG | 1.38 | 0.65 | -1.13 | 0.838 | 0.291 | -0.238 | -1.32 | 0.924 | 1.45 | -1.14 | 0.551 | 1.75 | -0.897 | -0.478
AAGUGCUGUCAUAGCUGAGGUC | 1.22 | -0.113 | -0.478 | 1.65 | 0 | 0.212 | 0.0875 | 0.564 | -0.62 | 0.528 | -0.819 | 1.38 | -0.608 | 0.918
AAGUGCUUCCUUUUAGAGGGUU | 0.896 | 0.633 | 0.466 | 1.62 | -0.113 | -0.869 | -1 | 0.635 | -0.72 | -0.82 | 0.457 | 0.00821 | -1.25 | 1.07
AAUAAUACAUGGUUGAUCUUU | -0.572 | -0.121 | -0.442 | -0.0974 | -0.598 | 0.609 | -0.77 | -0.364 | 0.0772 | -0.146 | -0.318 | -1.86 | 0.433 | 1.16
AAUAUUAUACAGUCAACCUCU | 1.48 | 0.408 | 3.57 | -1.29 | -0.762 | 0.0661 | 0.359 | 0.854 | -0.218 | -1.63 | 0 | 0.391 | -0.324 | -1.02
AAUCAUACACGGUUGACCUAUU | 0.277 | -0.199 | -0.221 | -0.342 | -0.256 | -0.182 | -0.0204 | 0.544 | 0.393 | -0.246 | 0.0899 | -1.95 | 0.236 | -0.4
AAUCAUACAGGGACAUCCAGUU | -0.994 | 1.38 | -0.77 | -0.451 | 0.163 | 0.273 | -0.0235 | 0.98 | 0.0607 | -0.401 | 0.474 | -0.725 | 1.15 | -0.265
AAUCCUUGGAACCUAGGUGUGAGU | 0.204 | -0.851 | -0.594 | -0.422 | 0.739 | 1.33 | -0.232 | -0.342 | 0.656 | 0.643 | -4.11 | -0.171 | 0.207 | 0.0671
AAUCCUUUGUCCCUGGGUGAGA | 0.972 | -0.304 | 1.42 | 0.615 | 0.171 | 0.916 | -0.735 | 0.455 | -0.9 | 0.853 | -2.16 | 0.439 | -0.257 | -0.0711
